These results are taken from patent publication US11492374B2 (priority 2020, dated 2022).

A word on the IC50: it is the concentration needed to halve the response being measured.

Molecules are shown by their SMILES.

For test [1], the target named is recombinant human kappa opioid receptor (KOR) (Homo sapiens (Human), UniProt P41145). The class given is binding.
Test [2] addresses recombinant human mu opioid receptor (MOR) (Homo sapiens (Human), UniProt P35372). The test is described as follows: Opioid receptor radioligand binding assay, MOR ([3H]DAMGO). The following applies: membranes of HEK293 cells expressing recombinant human MOR; 0.5 nM [3H]DAMGO.

As to `CC(C)C[C@@H](NC(=O)[C@@H](Cc1ccccc1)NC(=O)[C@H](N)[C@H](C)c1ccccc1)C(=O)N[C@H](CCCCN)C(=O)N1CCC(N)(C(=O)O)CC1` [Compound 18], in test [1], the concentration for half-maximal inhibition (IC50) stood at 0.000253 µM, the δ/k was above 39603 and the μ/k is 38855. Moreover, the 50% inhibitory concentration (IC50) in test [2] turned out to be 9.81 µM.
